Values quoted from earlier work, collected in patent US11639345B2, “Methionine metabolic pathway inhibitors” (MIGAL—GALILEE RESEARCH INSTITUTE LTD., priority 2018, dated 2023).

Target: T1, CGS from Nicotiana tabacum (Nicotiana tabacum, UniProt Q9ZPL5)
T1 sequence (Q9ZPL5 96-540 limits assumed): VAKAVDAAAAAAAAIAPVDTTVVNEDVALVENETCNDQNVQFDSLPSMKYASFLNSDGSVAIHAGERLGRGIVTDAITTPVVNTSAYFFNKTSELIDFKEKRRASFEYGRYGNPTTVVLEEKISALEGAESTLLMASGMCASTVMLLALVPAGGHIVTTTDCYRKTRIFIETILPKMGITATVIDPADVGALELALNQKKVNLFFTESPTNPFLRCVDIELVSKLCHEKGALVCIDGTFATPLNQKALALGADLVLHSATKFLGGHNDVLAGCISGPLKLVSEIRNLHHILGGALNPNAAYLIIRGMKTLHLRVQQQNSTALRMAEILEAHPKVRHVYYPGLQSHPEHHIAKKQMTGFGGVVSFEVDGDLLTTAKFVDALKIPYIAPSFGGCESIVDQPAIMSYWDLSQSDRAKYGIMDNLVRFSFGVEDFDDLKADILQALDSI
Settings: Steegborn et al. (2001); cited from earlier work

SMILES: O=C(O)CSc1nc(-c2cccc(Cl)c2)no1 [5-carboxymethylthio-3-(3′-chlorophenyl)-1,2,4-oxadiazol]
- affinity to the CGS: highest affinity to the CGS reported so far
